In patent publication US20250188082A1, “Use of Hypoxanthine Compound In Preparation of Drug For Treating Pulmonary Fibrosis” (Sichuan Yiasuo Pharmaceutical Technology Co., Ltd., priority 2022, published 2025):

How the values were obtained:
Type in all cases: in vivo, C57BL/6 mice
[1] = test system: bleomycin-induced pulmonary fibrosis model; assay: Early pulmonary fibrosis: bleomycin-induced model, dosing from one week after modelling; settings: early pulmonary fibrosis, 120 mg/kg/d intragastric, 14 days, from one week after model; for Leucocyte / Lymphocyte / Neutrophil: blood, Day 15, twice every day; for Ashcroft scores: lung tissue HE staining
[2] = test system: bleomycin-induced pulmonary fibrosis model; assay: Advanced pulmonary fibrosis: bleomycin-induced model, dosing from three weeks after modelling; settings: advanced pulmonary fibrosis, 120 mg/kg/d intragastric, 14 days, from three weeks after model; for Leucocyte / Lymphocyte / Neutrophil: blood, Day 15, twice every day; for Ashcroft scores: lung tissue HE staining
[3] = test system: Streptococcus pneumoniae-induced pulmonary fibrosis model; assay: Streptococcus pneumoniae-induced pulmonary fibrosis model; settings: Streptococcus pneumoniae + bleomycin, 120 mg/kg/d intragastric, 14 days; for Leucocyte / Lymphocyte / Neutrophil: blood, Day 15, 3 times every day, from one week after model; for Ashcroft scores: lung tissue HE staining
[4] = test system: influenza B virus-induced pulmonary fibrosis model (influenza B (H7N9) virus); settings: 120 mg/kg/d intragastric, 14 days; for Ashcroft scores: influenza B virus + bleomycin, lung tissue HE; for IL-1β / NF-κB / TNF-α / IL-6: serum, from two weeks after model; for IL-1β / NF-κB / TNF-α: influenza B (H7N9) + bleomycin; for IL-6: influenza B + bleomycin
[5] = test system: coronavirus-induced pulmonary fibrosis model (HcoV-OC43); assay: Coronavirus-induced pulmonary fibrosis model; settings: 120 mg/kg/d intragastric, 14 days; for Ashcroft scores: coronavirus HcoV-OC43 + bleomycin, lung tissue HE; for IL-1β / IL-6 / NF-κB / TNF-α: serum, HcoV-OC43 + bleomycin, from two weeks after model
Description: Experimental method: an in-vivo coronavirus-induced pulmonary fibrosis model mice was established: C57BL/6 mice (with weights being 22-25 g) were randomly and evenly divided into a plurality of groups, including blank control group, model group, Nintedanib positive control group, hypoxanthine analogue A group, hypoxanthine analogue B group, hypoxanthine analogue C group, compound 1 group, compound 2 group . . . compound 12 group, with 9 mice in each group. On Day 1, the mice in the blank control group were instilled with normal saline nasally, and the mice in other groups were all infected with HcoV-OC43 coronavirus strains (30 μL) through nasal instillation. On Day 2, the mice received 5 mg/kg bleomycin through tracheas to induce their pulmonary fibrosis. After the model was established for two weeks, the mice in each group were intragastrically administrated for intervention for consecutive 14 days; the mice in blank control group and model group intragastrically received the same dosage of the normal saline as those in drug groups; the mice in Nintedanib positive control group received Nintedanib (120 mg/kg); the mice in hypoxanthine analogue A group, hypoxanthine analogue B group and hypoxanthine analogue C group respectively received hypoxanthine analogue A (120 mg/kg/d), hypoxanthine analogue B (120 mg/kg/d) and hypoxanthine analogue C (120 mg/kg/d); and the mice in compound 1 group, compound 2 group . . . compound 12 group respectively received compound 1 (120 mg/kg/d), compound 2 (120 mg/kg/d) . . . compound 12 (120 mg/kg/d) prepared in example 1. After administration for consecutive 14 days, the mice were observed every day, and their weights and death conditions were recorded. After administration, blood was taken from eyeballs for immediately detecting the expression levels of NF-κB, TNF-α, IL-1 and IL-6 in serum, and lung tissues were taken for HE detection and Ashcroft scoring.

[6] = test system: mycoplasma-induced pulmonary fibrosis model (MPFH strain); assay: Mycoplasma-induced pulmonary fibrosis model; settings: 120 mg/kg/d intragastric, 14 days; for Leucocyte / Lymphocyte / Neutrophil: MPFH mycoplasma + bleomycin, once a day, from two weeks after model; for Ashcroft scores: mycoplasma + bleomycin, lung tissue HE
Description: Experimental method: an in-vivo mycoplasma-induced pulmonary fibrosis model was established: C57BL/6 mice (with weights being 22-25 g) were randomly and evenly divided into a plurality of groups, including blank control group, model group, Nintedanib positive control group, hypoxanthine analogue A group, hypoxanthine analogue B group, hypoxanthine analogue C group, compound 1 group, compound 2 group . . . compound 12 group, with 9 mice in each group. Before a model was established, the mice were anesthetized with diethyl ether. In addition to that the mice in blank control group with instilled with 100 μL of normal saline nasally, the mice in other groups with slowly instilled with an equal volume of a MPFH strain solution (containing 1×10^7 mL^−1 MPFH strain) to the nasal cavity, for consecutive 3 days, and inhaled the MPFH strain solution into bronchi. After instillation with mycoplasmas through tracheas, the mice received 5 mg/kg bleomycin through tracheas to induce their pulmonary fibrosis. After the model was established for two weeks, the mice in each group were intragastrically administrated for intervention for consecutive 14 days; the mice in blank control group and model group intragastrically received an equal dosage of normal saline as those in drug groups; the mice in Nintedanib positive control group received Nintedanib (120 mg/kg); the mice in hypoxanthine analogue A group, hypoxanthine analogue B group and hypoxanthine analogue C group respectively received hypoxanthine analogue A (120 mg/kg/d), hypoxanthine analogue B (120 mg/kg/d) and hypoxanthine analogue C (120 mg/kg/d); and the mice in compound 1 group, compound 2 group . . . compound 12 group respectively received compound 1 (120 mg/kg/d), compound 2 (120 mg/kg/d) . . . compound 12 (120 mg/kg/d) prepared in example 1. The mice were administrated once a day to be treated for consecutive 14 days. The mice were observed every day, and their weights and death conditions were recorded. On the last day of administration, the mice were sacrificed; and blood was taken from eyeballs and kept at −80° C. for detecting blood routine indexes. Meanwhile, lungs were lavaged with normal saline and separated to collect lavage fluids for detecting counts and classes of leucocytes; and lung tissues were taken for HE straining and Ashcroft scoring on the extent of pulmonary fibrosis.

SMILES	Leucocyte [1]	Lymphocyte [1]	Neutrophil [1]	Ashcroft scores [1]	Leucocyte [2]	Lymphocyte [2]	Neutrophil [2]	Ashcroft scores [2]	Leucocyte [3]	Lymphocyte [3]	Neutrophil [3]	Ashcroft scores [3]	Ashcroft scores [4]	IL-1β [4]	NF-κB [4]	TNF-α [4]	IL-6 [4]	Ashcroft scores [5]	IL-1β [5]	IL-6 [5]	further results
CC(C)Oc1ncnc2[nH]cnc12 [Compound 1]	4.15 10^9/L	5.42 10^9/L	1.11 10^9/L	0.99	4.28 10^9/L	5.33 10^9/L	1.37 10^9/L	0.95	5.52 10^9/L	5.99 10^9/L	2.00 10^9/L	1.20	1.19	26.3 pg/mL	30.5 pg/mL	72.9 pg/mL	65.1 pg/mL	1.18	31.8 pg/mL	62.7 pg/mL	NF-κB [5]: 23.9 pg/mL; TNF-α [5]: 51.8 pg/mL; Leucocyte [6]: 7.01 10^9/L; Lymphocyte [6]: 72.56 10^9/L; Neutrophil [6]: 21.01 10^9/L; Ashcroft scores [6]: 1.12
CC(C)n1cnc2c(=O)[nH]cnc21 [Compound 2]	4.11 10^9/L	5.19 10^9/L	1.04 10^9/L	1.01	4.16 10^9/L	5.29 10^9/L	1.26 10^9/L	0.88	5.48 10^9/L	5.95 10^9/L	1.83 10^9/L	1.09	1.09	26.6 pg/mL	29.5 pg/mL	72.6 pg/mL	65.4 pg/mL	1.16	32.0 pg/mL	62.6 pg/mL	NF-κB [5]: 24.6 pg/mL; TNF-α [5]: 51.2 pg/mL; Leucocyte [6]: 6.42 10^9/L; Lymphocyte [6]: 72.69 10^9/L; Neutrophil [6]: 21.93 10^9/L; Ashcroft scores [6]: 1.20
CC(C)Oc1ncnc2c1ncn2C(C)C [Compound 3]	4.01 10^9/L	4.99 10^9/L	0.96 10^9/L	0.92	3.98 10^9/L	5.18 10^9/L	1.19 10^9/L	0.87	5.62 10^9/L	5.77 10^9/L	1.60 10^9/L	1.01	0.98	25.8 pg/mL	28.8 pg/mL	71.8 pg/mL	64.1 pg/mL	1.03	31.3 pg/mL	61.7 pg/mL	NF-κB [5]: 23.7 pg/mL; TNF-α [5]: 49.9 pg/mL; Leucocyte [6]: 6.83 10^9/L; Lymphocyte [6]: 72.33 10^9/L; Neutrophil [6]: 22.12 10^9/L; Ashcroft scores [6]: 0.96
